Experimental data: patent publication US20250101039A1, “RIFAMYCIN DERIVATIVES FOR THE TREATMENT OF DISEASES” (priority 2022, published 2025)
≈ marks a conversion by molar mass, not a printed value.

How the values were obtained:
A. baumannii = test: MIC by broth microdilution, A. baumannii (WT); assay type: cell-based, Acinetobacter baumannii; settings: for MIC A. baumannii: RPMI medium supplemented with 10% FCS, 35° C. 20 hours; for A. baumannii MIC, WT: Table 4, RPMI + FCS
S. aureus = test: MIC by broth microdilution, S. aureus; assay type: cell-based, Staphylococcus aureus; settings: cation adjusted Mueller Hinton broth, 35° C. 20 hours
[1] = system: M. tuberculosis (H37Rv strain ATCC 27294); assay type: cell-based, Mycobacterium tuberculosis
[2] = system: M. smegmatis (strain ATCC 700084); test: MIC, M. smegmatis (BacTiter-Glo); assay type: cell-based, Mycobacterium smegmatis; settings: strain ATCC 700084, Middlebrook 7H9 + ADC, 90% growth inhibition, 20 hours
A. baumannii RpoB H535L = test: microbe, parasite or virus in culture; assay type: cell-based, Acinetobacter baumannii; settings: Table 4, RPMI + FCS
[3] = system: M. abscessus (strain ATCC 19977); test: MIC by broth microdilution, M. abscessus; assay type: cell-based, Mycobacterium abscessus; settings: strain ATCC 19977, Middlebrook 7H9 broth + ADC
[4] = system: H. influenzae (strain ATCC 49247); test: MIC by broth microdilution, H. influenzae; assay type: cell-based, Hemophilus influenzae; settings: strain ATCC 49247, Hemophilus test medium broth
[5] = system: Enterococcus faecalis (strain ATCC 51575); test: MIC by broth microdilution, E. faecalis; assay type: cell-based; settings: strain ATCC 51575, cation adjusted Mueller Hinton broth
[6] = system: S. pneumoniae (strain ATCC 49619); test: MIC by broth microdilution, S. pneumoniae; assay type: cell-based, Streptococcus pneumoniae; settings: strain ATCC 49619, cation adjusted Mueller Hinton broth + 5% laked horse blood
[7] = system: Staphylococcus epidermidis (strain ATCC 12228); test: MIC by broth microdilution, S. epidermidis; assay type: cell-based; settings: strain ATCC 12228, cation adjusted Mueller Hinton broth
A. baumannii RpoB H535C = test: microbe, parasite or virus in culture; assay type: cell-based, Acinetobacter baumannii; settings: Table 4, RPMI + FCS
[8] = system: S. pyogenes (strain IHMA 1117021); test: MIC by broth microdilution, S. pyogenes; assay type: cell-based, Streptococcus pyogenes; settings: strain IHMA 1117021, cation adjusted Mueller Hinton broth + 5% laked horse blood
[9] = system: Enterococcus faecium (strain NCTC 12204); test: MIC by broth microdilution, E. faecium; assay type: cell-based; settings: strain NCTC 12204, cation adjusted Mueller Hinton broth
A. baumannii RpoB H535Q = test: microbe, parasite or virus in culture; assay type: cell-based, Acinetobacter baumannii; settings: Table 4, RPMI + FCS

COC1C=COC2(C)Oc3c(C)c(O)c4c(c3C2=O)C2=NC3(NC2=C(NC(=O)C(C)=CC=CC(C)C(O)C(C)C(O)C(C)C(OC(C)=O)C1C)C4=O)C1CCC3CN(C)C1 (mixture of isomers) [1 (A + B)]
MIC A. baumannii (A. baumannii): 0.25 µg/mL | MIC S. aureus (S. aureus): 0.016 µg/mL

COC1C=COC2(C)Oc3c(C)c(O)c4c(c3C2=O)C2=NC3(NC2=C(NC(=O)C(C)=CC=CC(C)C(O)C(C)C(O)C(C)C(OC(C)=O)C1C)C4=O)C1CCC3CN(C(C)(C)C)C1 (mixture of isomers) [2 (A + B)]
MIC A. baumannii (A. baumannii): 2 µg/mL | MIC S. aureus (S. aureus): 0.008 µg/mL

COC1C=COC2(C)Oc3c(C)c(O)c4c(c3C2=O)C2=NC3(NC2=C(NC(=O)C(C)=CC=CC(C)C(O)C(C)C(O)C(C)C(OC(C)=O)C1C)C4=O)C1CC3CN(C)C1 (mixture of isomers) [5 (A + B)]
MIC A. baumannii (A. baumannii): 8 µg/mL | MIC S. aureus (S. aureus): 0.125 µg/mL

COC1C=COC2(C)Oc3c(C)c(O)c4c(c3C2=O)C2=NC3(CCC5CCC(C3)N5C)NC2=C(NC(=O)C(C)=CC=CC(C)C(O)C(C)C(O)C(C)C(OC(C)=O)C1C)C4=O (mixture of isomers) [8 (A + B + C + D)]
MIC M. tuberculosis [1]: 0.01 µg/mL | MIC M. smegmatis [2]: 1.19 µg/mL | A. baumannii MIC, RpoB H535L (A. baumannii RpoB H535L): 1 µg/mL | MIC M. abscessus [3]: 32 µg/mL | MIC H. influenzae [4]: 0.125 µg/mL | MIC E. faecalis [5]: 2 µg/mL | MIC S. pneumoniae [6]: < 0.002 µg/mL | MIC S. epidermidis [7]: < 0.002 µg/mL | A. baumannii MIC, RpoB H535C (A. baumannii RpoB H535C): 0.125 µg/mL | MIC S. pyogenes [8]: 0.016 µg/mL | MIC E. faecium [9]: 0.125 µg/mL | MIC A. baumannii (A. baumannii): 0.008 µg/mL | A. baumannii MIC, WT (A. baumannii): 0.008 µg/mL | MIC S. aureus (S. aureus): 0.03 µg/mL | A. baumannii MIC, RpoB H535Q (A. baumannii RpoB H535Q): 0.06 µg/mL

COC1C=COC2(C)Oc3c(C)c(O)c4c(c3C2=O)C2=NC3(CC5CCC(C3)N5C3CCCC3)NC2=C(NC(=O)C(C)=CC=CC(C)C(O)C(C)C(O)C(C)C(OC(C)=O)C1C)C4=O (mixture of isomers) [15 (A + B)]
MIC A. baumannii (A. baumannii): 0.25 µg/mL | MIC S. aureus (S. aureus): 0.03 µg/mL

COC1C=COC2(C)Oc3c(C)c(O)c4c(c3C2=O)C2=NC3(NC2=C(NC(=O)C(C)=CC=CC(C)C(O)C(C)C(O)C(C)C(OC(C)=O)C1C)C4=O)C1CCCC3CNC1 (mixture of isomers) [16 (A + B)]
MIC M. smegmatis [2]: 0.33 µg/mL | A. baumannii MIC, RpoB H535L (A. baumannii RpoB H535L): 1 µg/mL | MIC M. abscessus [3]: 4 µg/mL | MIC H. influenzae [4]: 0.06 µg/mL | MIC E. faecalis [5]: 0.5 µg/mL | MIC S. pneumoniae [6]: < 0.002 µg/mL | MIC S. epidermidis [7]: < 0.002 µg/mL | A. baumannii MIC, RpoB H535C (A. baumannii RpoB H535C): 0.016 µg/mL | MIC S. pyogenes [8]: < 0.002 µg/mL | MIC E. faecium [9]: 0.125 µg/mL | MIC A. baumannii (A. baumannii): < 0.002 µg/mL | A. baumannii MIC, WT (A. baumannii): ≤0.002 µg/mL | MIC S. aureus (S. aureus): 0.004 µg/mL | A. baumannii MIC, RpoB H535Q (A. baumannii RpoB H535Q): 0.008 µg/mL

CO[C@H]1/C=C/O[C@@]2(C)Oc3c(C)c(O)c4c(c3C2=O)C2=NC3(CCCNCC3)NC2=C(NC(=O)/C(C)=C\C=C\[C@H](C)[C@H](O)[C@@H](C)[C@@H](O)[C@@H](C)[C@H](OC(C)=O)[C@@H]1C)C4=O (single isomer, unassigned) [Compound 6A]
MIC A. baumannii (A. baumannii): 0.125 µg/mL (≈ 0.155 µM) | MIC S. aureus (S. aureus): 0.016 µg/mL (≈ 0.0199 µM)

CO[C@H]1/C=C/O[C@@]2(C)Oc3c(C)c(O)c4c(c3C2=O)C2=NC3(CCCNCC3)NC2=C(NC(=O)/C(C)=C\C=C\[C@H](C)[C@H](O)[C@@H](C)[C@@H](O)[C@@H](C)[C@H](OC(C)=O)[C@@H]1C)C4=O (single isomer, unassigned) [Compound 6B]
MIC A. baumannii (A. baumannii): 125 µg/mL (≈ 155 µM) | MIC S. aureus (S. aureus): 16 µg/mL (≈ 19.9 µM)

CO[C@H]1/C=C/O[C@@]2(C)Oc3c(C)c(O)c4c(c3C2=O)C2=NC3(CCCN(C)CC3)NC2=C(NC(=O)/C(C)=C\C=C\[C@H](C)[C@H](O)[C@@H](C)[C@@H](O)[C@@H](C)[C@H](OC(C)=O)[C@@H]1C)C4=O (single isomer, unassigned) [Compound 7A]
MIC M. tuberculosis [1]: 0.01 µg/mL (≈ 0.0122 µM) | MIC M. smegmatis [2]: 0.54 µg/mL | A. baumannii MIC, RpoB H535L (A. baumannii RpoB H535L): 1 µg/mL | MIC M. abscessus [3]: 16 µg/mL | MIC H. influenzae [4]: 0.06 µg/mL (≈ 0.0733 µM) | MIC E. faecalis [5]: 0.5 µg/mL (≈ 0.611 µM) | MIC S. pneumoniae [6]: < 0.002 µg/mL | MIC S. epidermidis [7]: < 0.002 µg/mL | A. baumannii MIC, RpoB H535C (A. baumannii RpoB H535C): 0.03 µg/mL | MIC S. pyogenes [8]: < 0.002 µg/mL | MIC E. faecium [9]: 0.06 µg/mL (≈ 0.0733 µM) | MIC A. baumannii (A. baumannii): 0.004 µg/mL (≈ 0.00488 µM) | A. baumannii MIC, WT (A. baumannii): 0.004 µg/mL | MIC S. aureus (S. aureus): 0.008 µg/mL (≈ 0.00977 µM) | A. baumannii MIC, RpoB H535Q (A. baumannii RpoB H535Q): 0.016 µg/mL

CO[C@H]1/C=C/O[C@@]2(C)Oc3c(C)c(O)c4c(c3C2=O)C2=NC3(CCCN(C)CC3)NC2=C(NC(=O)/C(C)=C\C=C\[C@H](C)[C@H](O)[C@@H](C)[C@@H](O)[C@@H](C)[C@H](OC(C)=O)[C@@H]1C)C4=O (single isomer, unassigned) [Compound 7B]
MIC A. baumannii (A. baumannii): 0.125 µg/mL (≈ 0.153 µM) | MIC S. aureus (S. aureus): 0.008 µg/mL (≈ 0.00977 µM)
